Measured values reported in patent US12685735B2 (Foghorn Therapeutics Inc., priority 2020, dated 2026).
Where two headings read alike, the source gives them in different places.

Columns and labels:
BRG-1 = BRG-1 (Homo sapiens, UniProt P51532); assay: ATPase catalytic activity assay of BRG-1 (ADP-Glo); format: biochemical; settings: ATPase catalytic activity, ADP-Glo; for Emax: read-out: BRG1 Max % Inhibition
Summary of the method: (§1)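 ADP formed by the ATPase reaction was quantified by ADP-Glo luminescence. After the reaction, unconsumed ATP was depleted (40 min, room temperature), then ADP was converted to ATP for luciferase detection (60 min, room temperature) before reading on a luminometer.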

BRM = BRM (Homo sapiens, UniProt P51531); assay: ATPase catalytic activity assay of BRM (ADP-Glo); format: biochemical
Summary of the method: as §1

Chain of BRM (P51531 whole entry): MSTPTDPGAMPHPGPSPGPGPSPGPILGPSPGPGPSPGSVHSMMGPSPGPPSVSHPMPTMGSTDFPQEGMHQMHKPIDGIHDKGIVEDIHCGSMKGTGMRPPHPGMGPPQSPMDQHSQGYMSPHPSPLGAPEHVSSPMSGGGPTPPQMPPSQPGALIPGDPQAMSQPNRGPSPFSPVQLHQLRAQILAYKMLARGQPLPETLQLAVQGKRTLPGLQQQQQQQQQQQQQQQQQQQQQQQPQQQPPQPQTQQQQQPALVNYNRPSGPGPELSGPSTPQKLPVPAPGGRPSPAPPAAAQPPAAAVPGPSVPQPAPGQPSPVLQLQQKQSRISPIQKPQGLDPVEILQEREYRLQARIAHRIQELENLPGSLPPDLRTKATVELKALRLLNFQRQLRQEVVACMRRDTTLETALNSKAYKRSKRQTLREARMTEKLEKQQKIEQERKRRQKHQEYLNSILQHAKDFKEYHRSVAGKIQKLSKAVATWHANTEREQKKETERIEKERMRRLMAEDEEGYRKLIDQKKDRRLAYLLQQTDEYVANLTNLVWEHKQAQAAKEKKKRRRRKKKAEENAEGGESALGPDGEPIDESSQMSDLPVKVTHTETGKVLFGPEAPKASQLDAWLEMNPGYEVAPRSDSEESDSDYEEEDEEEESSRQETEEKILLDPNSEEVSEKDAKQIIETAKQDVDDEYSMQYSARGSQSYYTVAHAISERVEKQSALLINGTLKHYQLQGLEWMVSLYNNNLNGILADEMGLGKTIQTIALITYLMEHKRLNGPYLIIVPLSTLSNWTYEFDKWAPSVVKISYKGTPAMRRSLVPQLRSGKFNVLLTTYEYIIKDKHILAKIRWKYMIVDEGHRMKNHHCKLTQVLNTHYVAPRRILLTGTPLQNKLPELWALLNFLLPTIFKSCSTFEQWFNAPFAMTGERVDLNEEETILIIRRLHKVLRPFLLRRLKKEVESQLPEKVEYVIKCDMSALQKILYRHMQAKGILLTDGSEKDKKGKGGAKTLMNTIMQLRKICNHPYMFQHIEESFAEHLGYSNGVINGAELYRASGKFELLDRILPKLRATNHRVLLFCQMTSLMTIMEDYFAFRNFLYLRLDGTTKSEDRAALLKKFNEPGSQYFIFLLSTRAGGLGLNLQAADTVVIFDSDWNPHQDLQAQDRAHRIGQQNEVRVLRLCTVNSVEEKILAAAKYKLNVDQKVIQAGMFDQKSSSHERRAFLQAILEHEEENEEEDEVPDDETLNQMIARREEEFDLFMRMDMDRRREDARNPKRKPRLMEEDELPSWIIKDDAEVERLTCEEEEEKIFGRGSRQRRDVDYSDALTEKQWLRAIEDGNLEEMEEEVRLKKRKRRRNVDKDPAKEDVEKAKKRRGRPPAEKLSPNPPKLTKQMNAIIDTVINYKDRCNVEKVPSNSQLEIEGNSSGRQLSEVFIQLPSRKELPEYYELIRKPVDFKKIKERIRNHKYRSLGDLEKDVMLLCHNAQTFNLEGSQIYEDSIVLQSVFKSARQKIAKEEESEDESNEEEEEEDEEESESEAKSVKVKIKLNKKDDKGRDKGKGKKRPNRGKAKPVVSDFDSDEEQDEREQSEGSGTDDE
Chain of BRG-1 (P51532 whole entry): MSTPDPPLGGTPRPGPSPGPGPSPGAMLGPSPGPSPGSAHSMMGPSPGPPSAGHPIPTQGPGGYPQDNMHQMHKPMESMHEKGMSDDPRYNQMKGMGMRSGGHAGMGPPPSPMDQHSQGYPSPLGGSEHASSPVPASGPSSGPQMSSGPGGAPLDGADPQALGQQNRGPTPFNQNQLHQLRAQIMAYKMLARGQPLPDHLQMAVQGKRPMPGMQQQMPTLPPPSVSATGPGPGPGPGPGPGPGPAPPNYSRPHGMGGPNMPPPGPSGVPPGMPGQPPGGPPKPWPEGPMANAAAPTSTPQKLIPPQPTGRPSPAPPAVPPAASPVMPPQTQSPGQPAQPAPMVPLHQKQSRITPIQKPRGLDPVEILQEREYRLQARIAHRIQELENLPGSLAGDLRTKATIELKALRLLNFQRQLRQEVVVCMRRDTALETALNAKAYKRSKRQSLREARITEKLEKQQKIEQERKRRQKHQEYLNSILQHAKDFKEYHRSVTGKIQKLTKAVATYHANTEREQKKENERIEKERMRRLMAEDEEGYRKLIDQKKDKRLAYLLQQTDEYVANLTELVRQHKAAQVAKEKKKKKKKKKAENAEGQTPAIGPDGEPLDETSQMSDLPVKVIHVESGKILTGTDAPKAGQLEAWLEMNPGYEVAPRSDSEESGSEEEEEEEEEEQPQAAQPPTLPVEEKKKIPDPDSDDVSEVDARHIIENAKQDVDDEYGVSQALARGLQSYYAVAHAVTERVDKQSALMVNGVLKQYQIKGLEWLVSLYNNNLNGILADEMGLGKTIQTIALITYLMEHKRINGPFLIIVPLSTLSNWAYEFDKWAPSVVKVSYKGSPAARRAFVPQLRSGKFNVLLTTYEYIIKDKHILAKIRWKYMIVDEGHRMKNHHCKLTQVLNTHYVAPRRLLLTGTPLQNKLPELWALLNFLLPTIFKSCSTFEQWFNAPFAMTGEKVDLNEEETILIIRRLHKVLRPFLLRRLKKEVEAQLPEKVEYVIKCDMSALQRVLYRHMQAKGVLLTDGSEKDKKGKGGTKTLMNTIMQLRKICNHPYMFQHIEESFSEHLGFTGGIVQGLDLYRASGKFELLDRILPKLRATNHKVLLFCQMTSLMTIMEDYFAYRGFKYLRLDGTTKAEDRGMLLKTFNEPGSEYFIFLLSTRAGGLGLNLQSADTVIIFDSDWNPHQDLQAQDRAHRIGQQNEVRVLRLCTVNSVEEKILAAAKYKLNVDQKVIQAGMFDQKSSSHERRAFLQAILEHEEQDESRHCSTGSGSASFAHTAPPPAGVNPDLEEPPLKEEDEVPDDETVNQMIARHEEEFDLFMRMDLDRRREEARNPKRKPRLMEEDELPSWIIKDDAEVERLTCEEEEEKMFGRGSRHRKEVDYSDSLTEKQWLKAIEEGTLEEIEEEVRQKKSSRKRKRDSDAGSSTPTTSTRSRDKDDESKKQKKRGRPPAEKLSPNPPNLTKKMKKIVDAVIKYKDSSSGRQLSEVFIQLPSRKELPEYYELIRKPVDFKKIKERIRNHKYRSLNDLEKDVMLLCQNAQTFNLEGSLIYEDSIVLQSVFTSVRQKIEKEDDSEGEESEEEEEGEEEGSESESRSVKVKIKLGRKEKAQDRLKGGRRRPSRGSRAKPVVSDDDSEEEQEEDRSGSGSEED

| SMILES | BRG1 Max % Inhibition (BRG-1) [%] | IC50 (BRG-1; read-out: BRG1 IC50 (μM)*) [µM] | BRM Max % Inhibition (BRM) [%] | IC50 (BRM; read-out: BRM IC50 (μM)*) [µM] | Emax (BRG-1) [%] | IC50 (BRG-1; BRG1 IC50 (μM)*) [µM] | IC50 (BRM; BRM IC50 (μM)*) [µM] |
| --- | --- | --- | --- | --- | --- | --- | --- |
| Cc1nccc(-c2cccc(-c3csc(NC(=O)CNC(=O)c4cccc(C(C)(C)CN)c4)n3)c2)n1 [Compound 100] | >95 | < 0.1 | >95 | < 0.1 | – | – | – |
| Cc1cnc(O)c(-c2cccc(-c3csc(NC(=O)CNC(=O)c4ccc5c(c4)[C@@](C)(CO)CC5)n3)n2)c1 [Compound 190, (S)-N-(2-((4-(2′-hydroxy-5′-methyl-[2,3′-bipyridin]-6-yl)thiazol-2-yl)amino)-2-oxoethyl)-3-(hydroxymethyl)-3-methyl-2,3-dihydro-1H-indene-5-carboxamide] | – | 0.1 to 1 | >90 | 0.1 to 1 | > 70 | – | – |
| CC(C)(CN)c1cccc(C(=O)NCC(=O)Nc2nc(-c3cccc(-c4cccc(C#N)c4)c3)cs2)c1 [Compound 55, 3-(1-amino-2-methylpropan-2-yl)-N-(2-((4-(3′-cyano-[1,1′-biphenyl]-3-yl)thiazol-2-yl)amino)-2-oxoethyl)benzamide] | – | > 5 | >90 | 0.1 to 1 | > 60 | – | – |
| CC(C)S(=O)(=O)c1cccc(C(=O)NCC(=O)Nc2nc(-c3cccc(-c4cccc(Cl)c4)c3)cs2)c1 [Compound 28, N-(2-((4-(3′-chloro-[1,1′-biphenyl]-3-yl)thiazol-2-yl)amino)-2-oxoethyl)-3-(isopropylsulfonyl)benzamide] | – | – | >80 | – | – | 1 to 5 | 0.1 to 1 |
| CC(C)S(=O)(=O)c1cccc(C(=O)NCC(=O)Nc2nc(-c3cccc(-c4cc(C#N)cc(CO)c4)c3)cs2)c1 [Compound 23, N-(2-((4-(3′-cyano-5′-(hydroxymethyl)-[1,1′-biphenyl]-3-yl)thiazol-2-yl)amino)-2-oxoethyl)-3-(isopropylsulfonyl)benzamide] | – | 0.1 to 1 | >90 | 0.1 to 1 | > 80 | – | – |
| COc1nccc(-c2cccc(-c3csc(NC(=O)CNC(=O)c4cccc(S(=O)(=O)C(C)C)c4)n3)n2)n1 [Compound 119, 3-isopropylsulfonyl-N-[2-[[4-[6-(2-methoxypyrimidin-4-yl)-2-pyridyl]thiazol-2-yl]amino]-2-oxo-ethyl]benzamide] | – | 0.1 to 1 | >95 | < 0.1 | > 80 | – | – |
| CC(C)S(=O)(=O)c1cccc(C(=O)NCC(=O)Nc2nc(-c3cccc(-c4ccnc(CN(C)C)c4)c3)cs2)c1 [Compound 45, N-(2-((4-(3-(2-((dimethylamino)methyl)pyridin-4-yl)phenyl)thiazol-2-yl)amino)-2-oxoethyl)-3-(isopropylsulfonyl)benzamide] | – | 1 to 5 | >95 | < 0.1 | – | – | – |
| CC(C)(CN)c1cccc(C(=O)NCC(=O)Nc2nc(-c3cccc(CO[C@H]4CC[C@H](O)CC4)c3)cs2)c1 [Compound 62, 3-(1-amino-2-methylpropan-2-yl)-N-(2-((4-(3-((((1R,4R)-4-hydroxycyclohexyl)oxy)methyl)phenyl)thiazol-2-yl)amino)-2-oxoethyl)benzamide] | – | > 5 | >80 | 1 to 5 | > 40 | – | – |
| CC(C)S(=O)(=O)c1cccc(C(=O)NCC(=O)Nc2nc(-c3cccc(-c4cccc(CN)c4)c3)cs2)c1 [Compound 31, N-(2-((4-(3′-(aminomethyl)-[1,1′-biphenyl]-3-yl)thiazol-2-yl)amino)-2-oxoethyl)-3-(isopropylsulfonyl)benzamide] | – | 1 to 5 | >90 | 0.1 to 1 | > 70 | – | – |
| CC(C)S(=O)(=O)c1cccc(C(=O)NCC(=O)Nc2nc(-c3cccc(-c4cc(C#N)cc(C#N)c4)c3)cs2)c1 [Compound 21, N-(2-((4-(3′,5′-dicyano-[1,1′-biphenyl]-3-yl)thiazol-2-yl)amino)-2-oxoethyl)-3-(isopropylsulfonyl)benzamide] | – | 1 to 5 | >80 | 0.1 to 1 | > 70 | – | – |

Second part, led by results:

| BRG1 Max % Inhibition (BRG-1) [%] | IC50 (BRG-1; read-out: BRG1 IC50 (μM)*) [µM] | BRM Max % Inhibition (BRM) [%] | IC50 (BRM; read-out: BRM IC50 (μM)*) [µM] | Emax (BRG-1) [%] | SMILES | IC50 (BRG-1; BRG1 IC50 (μM)*) [µM] | IC50 (BRM; BRM IC50 (μM)*) [µM] |
| --- | --- | --- | --- | --- | --- | --- | --- |
| – | 0.1 to 1 | >95 | < 0.1 | > 90 | C[C@@H]1CN(c2cccc(-c3csc(NC(=O)CNC(=O)c4ccc5c(c4)[C@@](C)(CO)CC5)n3)c2)C[C@H](C)O1 [Compound 219, (S)-N-(2-((4-(3-((cis)-2,6-dimethylmorpholino)phenyl)thiazol-2-yl)amino)-2-oxoethyl)-3-(hydroxymethyl)-3-methyl-2,3-dihydro-1H-indene-5-carboxamide] | – | – |
| – | 0.1 to 1 | >95 | < 0.1 | > 90 | Cc1cc(-c2cccc(-c3csc(NC(=O)CNC(=O)c4ccc5c(c4)[C@@](C)(CO)CC5)n3)n2)ncn1 [Compound 204, (3S)-3-(hydroxymethyl)-3-methyl-N-[2-[[4-[6-(6-methylpyrimidin-4-yl)-2-pyridyl]thiazol-2-yl]amino]-2-oxo-ethyl]indane-5-carboxamide] | – | – |
| – | 1 to 5 | >80 | 0.1 to 1 | > 50 | CCC(C)(CO)c1cccc(C(=O)NCC(=O)Nc2nc(-c3cccc(-c4ccncc4)c3)cs2)c1 (stereo not drawn) [Compound 242, 3-[1-(hydroxymethyl)-1-methyl-propyl]-N-[2-oxo-2-[[4-[3-(4-pyridyl)phenyl]thiazol-2-yl]amino]ethyl]benzamide] | – | – |
| – | 0.1 to 1 | >90 | < 0.1 | > 90 | C[C@@]1(F)COCc2ccc(C(=O)NCC(=O)Nc3nc(-c4cc(F)cc(C#N)c4)cs3)cc21 [Compound 314, (S)-N-(2-((4-(3-cyano-5-fluorophenyl)thiazol-2-yl)amino)-2-oxoethyl)-4-fluoro-4-methylisochromane-6-carboxamide] | – | – |
| – | 0.1 to 1 | >95 | < 0.1 | > 95 | C[C@@]1(C#N)COCc2ccc(C(=O)NCC(=O)Nc3nc(-c4cccc(F)c4)cs3)cc21 [Compound 322, (R)-4-cyano-N-(2-((4-(3-fluorophenyl)thiazol-2-yl)amino)-2-oxoethyl)-4-methylisochromane-6-carboxamide] | – | – |
| – | 0.1 to 1 | >95 | < 0.1 | > 95 | COc1cccc(-c2csc(NC(=O)CNC(=O)c3cc(F)c4c(c3)[C@](C)(C#N)COC4)n2)c1 [Compound 270, (R)-4-cyano-8-fluoro-N-(2-((4-(3-methoxyphenyl)thiazol-2-yl)amino)-2-oxoethyl)-4-methylisochromane-6-carboxamide] | – | – |
| – | 0.1 to 1 | >95 | < 0.1 | > 95 | CC1COCc2ccc(C(=O)NCC(=O)Nc3nc(-c4cccc(N5C[C@@H](C)O[C@@H](C)C5)n4)cs3)cc21 (stereo partly drawn) [Compound 346, N-(2-((4-(6-((cis)-2,6-dimethylmorpholino)pyridin-2-yl)thiazol-2-yl)amino)-2-oxoethyl)-4-methylisochromane-6-carboxamide] | – | – |
| – | 1 to 5 | >95 | < 0.1 | > 95 | C[C@@H]1CN(c2cccc(-c3csc(NC(=O)CNC(=O)c4ccc5c(c4)[C@@]4(COC5)CC4(F)F)n3)n2)C[C@H](C)O1 [Compound 410, (R)-N-(2-((4-(6-((cis)-2,6-dimethylmorpholino)pyridin-2-yl)thiazol-2-yl)amino)-2-oxoethyl)-2,2-difluorospiro[cyclopropane-1,4′-isochromane]-6′-carboxamide] | – | – |
| – | > 5 | >90 | 0.1 to 1 | > 90 | C[C@@H]1CN(c2cccc(-c3csc(NC(=O)CNC(=O)c4ccc5c(c4)[C@]4(COC5)CC4(F)F)n3)n2)C[C@H](C)O1 [Compound 411, (S)-N-(2-((4-(6-((cis)-2,6-dimethylmorpholino)pyridin-2-yl)thiazol-2-yl)amino)-2-oxoethyl)-2,2-difluorospiro[cyclopropane-1,4′-isochromane]-6′-carboxamide] | – | – |
| – | 1 to 5 | >95 | 0.1 to 1 | > 70 | C[C@@H]1CN(c2cccc(-c3csc(NC(=O)CNC(=O)c4ccc5c(c4)C4(CCCC4=O)CC5)n3)c2)C[C@H](C)O1 (stereo partly drawn) [Compound 195, N-(2-((4-(3-((cis)-2,6-dimethylmorpholino)phenyl)thiazol-2-yl)amino)-2-oxoethyl)-2-oxo-2′,3′-dihydrospiro[cyclopentane-1,1′-indene]-6′-carboxamide] | – | – |
| – | 0.1 to 1 | >95 | < 0.1 | > 95 | C[C@@]1(C#N)COCc2ccc(C(=O)NCC(=O)Nc3nc(-c4cccc(C56CCOCC5C6)c4)cs3)cc21 (stereo partly drawn) [Compound 305, (R)-N-(2-((4-(3-(3-oxabicyclo[4.1.0]heptan-6-yl)phenyl)thiazol-2-yl)amino)-2-oxoethyl)-4-cyano-4-methylisochromane-6-carboxamide] | – | – |
| – | 1 to 5 | >90 | 0.1 to 1 | > 90 | C[C@@H]1CN(c2cccc(-c3csc(NC(=O)CNC(=O)c4ccc5c(c4)[C@](C)(CO)CN5C)n3)c2)C[C@H](C)O1 [Compound 403, (S)-N-(2-((4-(3-((cis)-2,6-dimethylmorpholino)phenyl)thiazol-2-yl)amino)-2-oxoethyl)-3-(hydroxymethyl)-1,3-dimethylindoline-5-carboxamide] | – | – |
| – | 0.1 to 1 | >95 | < 0.1 | > 80 | CC1(CO)CCc2ccc(C(=O)NCC(=O)Nc3nc(-c4cccc(-c5cccc(C#N)c5)c4)cs3)cc21 (stereo not drawn) [Compound 233, N-[2-[[4-[3-(3-cyanophenyl)phenyl]thiazol-2-yl]amino]-2-oxo-ethyl]-3-(hydroxymethyl)-3-methyl-indane-5-carboxamide] | – | – |
